Measured values published in patent publication US9351955B2, “Compounds and pharmaceutical compositions thereof for the treatment of cystic fibrosis” (Galapagos NV, priority 2013, dated 2016).

How the values were obtained:
CFTR G551D mutant = molecular target: T1, CFTR G551D mutant (Homo sapiens, UniProt P13569, G551D); experiment: YFP-halide influx assay for the CFTR-G551D mutation (HEK293 cells); assay type: cell-based; details: HEK293 cells expressing CFTR G551D and YFP reporter; forskolin 10.67 μM; read-out: EC50 measured by YFP-halide influx assay for the CFTR-G551D
T1 construct: expressed in transfected cells; host or cells: HEK293 (reverse transfection with plasmids)
T1 sequence (P13569 whole entry G551D): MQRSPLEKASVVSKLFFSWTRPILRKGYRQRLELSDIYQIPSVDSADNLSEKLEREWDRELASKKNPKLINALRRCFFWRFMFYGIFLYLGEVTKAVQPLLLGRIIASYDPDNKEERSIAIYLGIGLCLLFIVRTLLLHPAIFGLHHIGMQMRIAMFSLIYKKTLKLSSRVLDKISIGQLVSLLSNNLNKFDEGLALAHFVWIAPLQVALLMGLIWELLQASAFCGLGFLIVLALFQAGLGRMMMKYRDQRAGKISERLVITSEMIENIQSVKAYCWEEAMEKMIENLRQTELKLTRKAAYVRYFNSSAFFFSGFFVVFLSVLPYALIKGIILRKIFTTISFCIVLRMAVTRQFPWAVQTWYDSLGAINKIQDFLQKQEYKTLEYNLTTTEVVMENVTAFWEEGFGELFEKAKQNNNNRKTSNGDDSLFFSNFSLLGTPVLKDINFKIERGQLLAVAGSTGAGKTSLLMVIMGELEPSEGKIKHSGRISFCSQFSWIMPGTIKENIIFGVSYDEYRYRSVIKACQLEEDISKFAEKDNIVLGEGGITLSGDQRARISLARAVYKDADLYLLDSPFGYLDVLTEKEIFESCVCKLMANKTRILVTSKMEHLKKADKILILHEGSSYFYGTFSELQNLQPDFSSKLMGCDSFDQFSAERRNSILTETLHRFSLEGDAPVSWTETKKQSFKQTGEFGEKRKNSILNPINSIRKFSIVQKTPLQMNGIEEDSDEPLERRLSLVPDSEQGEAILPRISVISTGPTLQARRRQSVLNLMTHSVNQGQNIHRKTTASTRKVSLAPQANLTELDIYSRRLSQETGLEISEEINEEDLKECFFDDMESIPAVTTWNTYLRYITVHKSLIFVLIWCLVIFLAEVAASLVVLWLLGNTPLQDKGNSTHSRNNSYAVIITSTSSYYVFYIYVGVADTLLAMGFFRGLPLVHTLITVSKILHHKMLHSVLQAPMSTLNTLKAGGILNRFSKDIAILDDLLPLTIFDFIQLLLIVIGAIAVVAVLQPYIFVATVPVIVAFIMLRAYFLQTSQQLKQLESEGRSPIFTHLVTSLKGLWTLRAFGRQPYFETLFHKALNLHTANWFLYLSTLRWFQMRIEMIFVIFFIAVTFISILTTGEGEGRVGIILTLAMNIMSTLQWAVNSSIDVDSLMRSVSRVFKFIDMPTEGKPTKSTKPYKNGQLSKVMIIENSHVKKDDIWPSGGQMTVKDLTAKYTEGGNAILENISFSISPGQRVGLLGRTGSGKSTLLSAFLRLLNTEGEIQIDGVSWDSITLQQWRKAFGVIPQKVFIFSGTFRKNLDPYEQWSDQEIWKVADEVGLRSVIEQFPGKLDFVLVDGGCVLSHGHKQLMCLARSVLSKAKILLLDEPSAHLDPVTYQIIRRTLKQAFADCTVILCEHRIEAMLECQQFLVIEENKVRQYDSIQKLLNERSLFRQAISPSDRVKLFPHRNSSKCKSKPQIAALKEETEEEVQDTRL
Text: 6.3. YFP-Halide Influx Assay for the CFTR-G551D Mutation
The YFP halide influx assay measures the functionality of the cystic fibrosis Transmembrane Conductance regulator (CFTR) channels. The assay is used to evaluate the capacity of compounds to increase the channel opening of existing mutant CFTR channels in the membrane. It makes use of the observation that the yellow fluorescent protein (YFP) variant YFP H148Q, I152L, F47L has its fluorescence substantially quenched by halide ions like Cl^− and I^−. (Galietta et al., 2001)
For this purpose, HEK293-cells are seeded in 96 well plates. During seeding, the cells are reverse-transfected with plasmid vectors that direct the expression of the CFTR G551D mutant and of the YFP reporter. Cells are incubated at 37° C., 5% CO2 for 24 hours so as to allow for sufficient expression of the CFTR protein.
(§1) The I^−-induced quenching of fluorescence is recorded immediately after injection of I^− for 7 seconds. The capacity of a compound to increase the channel opening is directly correlated with the decrease in fluorescence, and is expressed as (1−(fluorescence after 7 seconds (F)/fluorescence before injection (F0))) and an EC50 can be derived from a (1−F/F0) vs compound concentration plot.

CFTR ΔF508 mutant = molecular target: T2, CFTR ΔF508 mutant (Homo sapiens, UniProt P13569, DEL508-508); experiment: YFP-halide influx assay for the CFTR-ΔF508 mutation (384 well, CFBE41o- cells, FDSS/μCell); assay type: cell-based; details: forskolin 10.67 μM, fluorescence after 36 seconds, read-out: EC50 measured by YFP-halide influx assay for the CFTR-ΔF508
T2 construct: expressed in transfected cells; host or cells: CFBE41o- (adenoviral transduction)
T2 sequence (P13569 with tags, fused parts or gaps DEL508-508): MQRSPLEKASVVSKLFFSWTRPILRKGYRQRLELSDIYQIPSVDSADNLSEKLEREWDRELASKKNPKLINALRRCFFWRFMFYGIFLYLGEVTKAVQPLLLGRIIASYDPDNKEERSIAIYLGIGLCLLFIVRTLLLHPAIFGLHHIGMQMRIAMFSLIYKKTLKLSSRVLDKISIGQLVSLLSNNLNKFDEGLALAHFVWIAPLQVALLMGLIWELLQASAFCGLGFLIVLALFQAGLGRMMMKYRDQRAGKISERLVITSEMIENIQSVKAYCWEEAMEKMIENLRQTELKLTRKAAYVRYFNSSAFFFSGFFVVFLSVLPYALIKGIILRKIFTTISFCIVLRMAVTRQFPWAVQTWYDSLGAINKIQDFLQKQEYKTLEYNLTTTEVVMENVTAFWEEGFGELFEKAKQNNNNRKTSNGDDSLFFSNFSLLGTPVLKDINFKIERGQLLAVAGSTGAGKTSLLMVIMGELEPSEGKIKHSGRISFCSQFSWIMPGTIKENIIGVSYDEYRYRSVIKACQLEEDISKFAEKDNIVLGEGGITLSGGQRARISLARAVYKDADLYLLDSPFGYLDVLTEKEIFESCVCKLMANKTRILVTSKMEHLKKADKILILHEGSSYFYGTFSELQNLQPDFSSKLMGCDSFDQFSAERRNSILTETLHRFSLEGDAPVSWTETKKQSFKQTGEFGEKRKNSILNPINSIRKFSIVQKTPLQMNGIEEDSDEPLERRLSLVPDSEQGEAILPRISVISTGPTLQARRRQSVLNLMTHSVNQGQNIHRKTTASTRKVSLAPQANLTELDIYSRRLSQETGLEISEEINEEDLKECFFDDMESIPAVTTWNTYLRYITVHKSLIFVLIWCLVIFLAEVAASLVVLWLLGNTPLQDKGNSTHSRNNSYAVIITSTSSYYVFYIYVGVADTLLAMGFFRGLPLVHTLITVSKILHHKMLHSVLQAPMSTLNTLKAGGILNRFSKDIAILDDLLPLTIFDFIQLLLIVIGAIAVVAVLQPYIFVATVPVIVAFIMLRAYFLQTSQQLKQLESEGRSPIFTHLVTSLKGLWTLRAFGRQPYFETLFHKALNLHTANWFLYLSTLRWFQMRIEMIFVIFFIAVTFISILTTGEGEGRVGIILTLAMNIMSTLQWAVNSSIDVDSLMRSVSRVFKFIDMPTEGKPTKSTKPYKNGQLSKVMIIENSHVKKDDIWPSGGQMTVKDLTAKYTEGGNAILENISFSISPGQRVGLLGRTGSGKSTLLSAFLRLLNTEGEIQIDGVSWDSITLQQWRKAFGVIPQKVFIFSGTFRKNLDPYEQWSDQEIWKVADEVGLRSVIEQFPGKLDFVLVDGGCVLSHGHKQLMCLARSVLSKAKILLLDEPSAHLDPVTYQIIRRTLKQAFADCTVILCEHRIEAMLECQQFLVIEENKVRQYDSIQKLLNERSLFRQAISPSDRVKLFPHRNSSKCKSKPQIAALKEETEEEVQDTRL
Text: 6.2. YFP-Halide Influx Assay for the CFTR-ΔF508 Mutation
The YFP halide influx assay measures the functionality of the cystic fibrosis Transmembrane Conductance regulator (CFTR) channels in the cystic fibrosis bronchial epithelium cell line CFBE41o-. The assay is used to evaluate the capacity of compounds to increase the open probability of existing CFTR channels in the membrane. It makes use of the observation that the yellow fluorescent protein (YFP) variant YFP H148Q, I152L has its fluorescence substantially quenched by halide ions like Cl— and I— (Galietta et al., 2001; Nagai et al., 2002).
For this purpose, CFBE410-cells are seeded in 384 well plates (3000 CFBE cells/well). One day after seeding, the CFBE cells are transduced with adenoviral vectors that direct the expression of the CFTR ΔF508 mutant and of the YFP reporter. Cells are incubated at 27° C., 5% CO2 for 24 hours so as to allow for the proper folding and migration to the membrane of the CFTR channel or treated with a CFTR modulator during 24 h at 37° C.
as §1, with “I— induced” for “I^−-induced”, “recorded […]” for “recorded”, “I—” for “I^−”, “2 min on an FDSS/μCell (Hamamatsu).” for “7 seconds.”, “36” for “7”

Structure (SMILES) | EC50 (CFTR G551D mutant) | EC50 (CFTR ΔF508 mutant)
CC(C)C(CO)C(=O)Nc1sc2c(c1C(N)=O)CC(C)(C)OC2(C)C (centres unmarked) [Compound 74, 2-[[2-(hydroxymethyl)-3-methyl-butanoyl]amino]-5,5,7,7-tetramethyl-4H-thieno[2,3-c]pyran-3-carboxamide] | 3330 nM | 82.6 nM
CC(O)C1(C(=O)Nc2sc3c(c2C(N)=O)CC(C)(C)OC3(C)C)CC1 (centres unmarked) [Compound 78, 2-[[1-[1-hydroxyethyl]cyclopropanecarbonyl]amino]-5,5,7,7-tetramethyl-4H-thieno[2,3-c]pyran-3-carboxamide] | 3350 nM | 6.39 nM
CC(O)C1(C(=O)Nc2sc3c(c2C(N)=O)CC(C)(C)OC3(C)C)CC1 (centres unmarked) [Compound 79, 2-[[1-[1-hydroxyethyl]cyclopropanecarbonyl]amino]-5,5,7,7-tetramethyl-4H-thieno[2,3-c]pyran-3-carboxamide] | 3330 nM | 23.6 nM
CC1(C)Cc2c(sc(NC(=O)C(C)(O)C(C)(C)C)c2C(N)=O)C(C)(C)O1 (centres unmarked) [Compound 81, 2-[(2-hydroxy-2,3,3-trimethyl-butanoyl)amino]-5,5,7,7-tetramethyl-4H-thieno[2,3-c]pyran-3-carboxamide] | 6660 nM | 3.23 nM
CC1(C)Cc2c(sc(NC(=O)C(CO)CC3CC3)c2C(N)=O)C(C)(C)O1 (centres unmarked) [Compound 84, 2-[[2-(cyclopropylmethyl)-3-hydroxy-propanoyl]amino]-5,5,7,7-tetramethyl-4H-thieno[2,3-c]pyran-3-carboxamide] | 3330 nM | 25.4 nM
CC1(C)Cc2c(sc(NC(=O)C(CO)C(C)(C)C)c2C(N)=O)C(C)(C)O1 (centres unmarked) [Compound 85, 2-[[2-(hydroxymethyl)-3,3-dimethyl-butanoyl]amino]-5,5,7,7-tetramethyl-4H-thieno[2,3-c]pyran-3-carboxamide] | 3330 nM | 93.5 nM
CC1(C)Cc2c(sc(NC(=O)c3n[nH]cc3CO)c2C(N)=O)C(C)(C)O1 [Compound 88, N-(3-carbamoyl-5,5,7,7-tetramethyl-4H-thieno[2,3-c]pyran-2-yl)-4-(hydroxymethyl)-1H-pyrazole-3-carboxamide] | 1170 nM | 145 nM
CC1(C)Cc2c(sc(NC(=O)C(CO)C(C)(C)C)c2C(N)=O)C(C)(C)O1 (centres unmarked) [Compound 90, 2-[[2-(hydroxymethyl)-3,3-dimethyl-butanoyl]amino]-5,5,7,7-tetramethyl-4H-thieno[2,3-c]pyran-3-carboxamide] | 3200 nM | 120 nM
CC1(C)Cc2c(sc(NC(=O)c3ccn(COP(=O)(O)O)n3)c2C(N)=O)C(C)(C)O1 [Compound 93, [3-[(3-carbamoyl-5,5,7,7-tetramethyl-4H-thieno[2,3-c]pyran-2-yl)carbamoyl]pyrazol-1-yl]methyl dihydrogen phosphate] | 3330 nM | 479 nM
CC1(C)Cc2c(sc(NC(=O)[C@]3(CO)CC3(C)C)c2C(N)=O)C(C)(C)O1 [Compound 99, 2-[[(1R)-1-(hydroxymethyl)-2,2-dimethyl-cyclopropanecarbonyl]amino]-5,5,7,7-tetramethyl-4H-thieno[2,3-c]pyran-3-carboxamide] | 1340 nM | 28.3 nM
COCCOc1c[nH]nc1C(=O)Nc1sc2c(c1C(N)=O)CC(C)(C)OC2(C)C [Compound 100, N-(3-carbamoyl-5,5,7,7-tetramethyl-4H-thieno[2,3-c]pyran-2-yl)-4-(2-methoxyethoxy)-1H-pyrazole-3-carboxamide] | 2860 nM | 190 nM
CC1(C)Cc2c(sc(NC(=O)c3ccccc3OC(F)F)c2C(N)=O)C(C)(C)O1 [Compound 113, 2-[[2-(difluoromethoxy)benzoyl]amino]-5,5,7,7-tetramethyl-4H-thieno[2,3-c]pyran-3-carboxamide] | 2790 nM | 77.5 nM
CC1(C)Cc2c(sc(NC(=O)c3ccn(C(F)F)n3)c2C(N)=O)C(C)(C)O1 [Compound 114, N-(3-carbamoyl-5,5,7,7-tetramethyl-4H-thieno[2,3-c]pyran-2-yl)-1-(difluoromethyl)pyrazole-3-carboxamide] | 1710 nM | 40.9 nM
